Test results reported in ChEMBL document CHEMBL1201862, “PubChem BioAssay data set” (2004).
Active and inactive are the calls of the source. For most assays here, no stated cut-off is given here; in the data, actives have a measured EC50 and inactives only a lower limit.

Key:
[1] = Luminescence Cell-Based Dose Confirmation HTS to Identify Activators of 5'UTR Stem-Loop Driven Alpha-Synuclein mRNA Translation in H4 Neuroglioblastoma Cells. [Related pubchem assays: 1829 (Project Summary), 1814 (Primary HTS)]; type: functional
[2] = Luminescence Cell-Based Dose Response HTS to Identify Activators of Luciferase Translation or Activity in H4 […] Cells. [Related pubchem assays: 1829 (Project Summary), 1814 (Primary HTS)]; type: functional
H4 = assay: Luminescence Cell-Based Dose Response HTS to Identify Activators of 5'UTR Stem-Loop Driven Prion Protein mRNA Translation in H4 Neuroglioblastoma Cells. [Related pubchem assays: 1829 (Project Summary), 1814 (Primary HTS)]; type: functional; settings: Homo sapiens
[3] = molecular target: T1, Corticotropin-releasing factor receptor 2/Corticotropin-releasing factor-binding protein (Homo sapiens, UniProt P24387+Q13324); assay: Dose Response confirmation of uHTS hits for small molecule antagonists of the CRF-binding protein and CRF-R2 receptor complex.; type: functional; settings: read-out: IC50_Mean
T1 sequence (Q13324 whole entry): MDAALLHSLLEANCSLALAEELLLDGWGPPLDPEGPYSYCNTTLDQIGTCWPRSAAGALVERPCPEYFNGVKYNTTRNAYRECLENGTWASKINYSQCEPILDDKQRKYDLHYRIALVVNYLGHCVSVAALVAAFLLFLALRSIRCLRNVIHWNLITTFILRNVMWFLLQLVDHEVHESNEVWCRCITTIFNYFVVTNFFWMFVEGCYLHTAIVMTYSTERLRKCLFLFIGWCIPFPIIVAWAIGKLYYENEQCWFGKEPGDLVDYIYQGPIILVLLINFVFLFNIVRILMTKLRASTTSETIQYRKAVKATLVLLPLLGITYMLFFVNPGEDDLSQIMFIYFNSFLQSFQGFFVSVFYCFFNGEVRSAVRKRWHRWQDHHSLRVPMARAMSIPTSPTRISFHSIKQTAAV
T1 sequence (P24387 whole entry): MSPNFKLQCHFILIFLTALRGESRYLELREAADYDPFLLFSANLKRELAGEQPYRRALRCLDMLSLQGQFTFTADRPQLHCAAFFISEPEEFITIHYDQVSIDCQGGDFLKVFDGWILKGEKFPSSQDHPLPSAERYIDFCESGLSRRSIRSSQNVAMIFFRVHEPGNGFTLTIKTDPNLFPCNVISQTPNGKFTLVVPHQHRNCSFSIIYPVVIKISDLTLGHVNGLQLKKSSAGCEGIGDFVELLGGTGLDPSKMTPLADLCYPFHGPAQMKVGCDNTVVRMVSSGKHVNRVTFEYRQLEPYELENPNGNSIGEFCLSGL

[4] = molecular target: T1, Corticotropin-releasing factor receptor 2/Corticotropin-releasing factor-binding protein; assay: activators of CRF receptor 2 with binding protein – uHTS hits, confirmation (AID 602473); type: functional; settings: read-out: EC50_Mean
[5] = molecular target: T2, Polyadenylate-binding protein 1 (Homo sapiens, UniProt P11940); assay: MLLE binding blockers, Cy5 peptide tracer – biochemical, fluorescence polarization, Cy5-PAM2 peptide, secondary, miRNA deadenylation inhibitor project, dose response (AID 602260); type: functional; settings: read-out: IC50_Mean
[6] = molecular target: T2, Polyadenylate-binding protein 1; assay: MLLE domain peptide-binding blockers, IC50 – biochemical, fluorescence polarization, FITC-PAM2 peptide, dose response (AID 602259); type: functional; settings: read-out: IC50_Mean
Protein RecA = molecular target: T3, Protein RecA (Mycobacterium tuberculosis, UniProt P9WHJ3); assay: Fluorescence Cell-Free Homogeneous Dose Retest to Identify Inhibitors of RecA-Intein Splicing Activity. [Related pubchem assays (depositor defined):AID2097, AID2223, AID489010, AID492950]; type: functional
T3 sequence (P9WHJ3 whole entry): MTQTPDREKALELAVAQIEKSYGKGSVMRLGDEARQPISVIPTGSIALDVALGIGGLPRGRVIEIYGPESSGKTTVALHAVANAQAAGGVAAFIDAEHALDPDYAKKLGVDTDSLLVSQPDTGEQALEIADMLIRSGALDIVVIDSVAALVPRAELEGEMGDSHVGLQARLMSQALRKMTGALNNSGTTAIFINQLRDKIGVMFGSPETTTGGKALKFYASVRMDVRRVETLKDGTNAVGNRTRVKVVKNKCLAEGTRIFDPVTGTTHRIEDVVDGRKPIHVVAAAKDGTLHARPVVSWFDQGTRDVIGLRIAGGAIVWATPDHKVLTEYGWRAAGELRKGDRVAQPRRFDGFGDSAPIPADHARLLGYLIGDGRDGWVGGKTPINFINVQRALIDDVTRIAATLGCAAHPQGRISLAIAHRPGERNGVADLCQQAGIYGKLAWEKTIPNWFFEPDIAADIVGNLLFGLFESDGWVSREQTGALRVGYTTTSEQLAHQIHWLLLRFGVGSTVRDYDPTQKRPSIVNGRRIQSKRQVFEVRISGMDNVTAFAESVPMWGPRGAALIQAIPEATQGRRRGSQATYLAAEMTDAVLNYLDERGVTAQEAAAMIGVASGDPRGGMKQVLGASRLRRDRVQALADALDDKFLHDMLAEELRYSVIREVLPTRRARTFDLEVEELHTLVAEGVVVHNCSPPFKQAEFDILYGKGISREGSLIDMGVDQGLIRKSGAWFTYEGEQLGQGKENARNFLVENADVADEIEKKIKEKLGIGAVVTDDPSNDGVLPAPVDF

Paired box protein Pax-8 = Paired box protein Pax-8 (Homo sapiens, UniProt Q06710); assay: PAX8 transcriptional activity inhibition in RMG-I – RMG-I cells, luciferase, cherry-pick, dose response (AID 687027); type: functional, cell-based;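 further: luciferase reporter driven by Pax8 target thyroperoxidase promoter measured by SteadyGlo luminescence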
Sequence of Paired box protein Pax-8 (Q06710 whole entry): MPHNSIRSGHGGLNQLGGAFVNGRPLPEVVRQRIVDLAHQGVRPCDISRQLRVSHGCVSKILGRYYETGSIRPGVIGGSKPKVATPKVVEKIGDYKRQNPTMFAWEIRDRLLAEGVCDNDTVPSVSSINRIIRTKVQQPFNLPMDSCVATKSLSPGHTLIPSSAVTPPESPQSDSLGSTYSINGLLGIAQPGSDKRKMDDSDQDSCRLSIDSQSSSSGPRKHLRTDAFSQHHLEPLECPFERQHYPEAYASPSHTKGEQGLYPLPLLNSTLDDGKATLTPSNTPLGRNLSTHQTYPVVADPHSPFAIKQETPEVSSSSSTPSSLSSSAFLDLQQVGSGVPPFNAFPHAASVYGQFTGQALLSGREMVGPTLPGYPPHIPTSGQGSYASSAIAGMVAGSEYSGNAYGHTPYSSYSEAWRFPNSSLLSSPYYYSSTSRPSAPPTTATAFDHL

T2 sequence (P11940 whole entry, the tested form may be a part): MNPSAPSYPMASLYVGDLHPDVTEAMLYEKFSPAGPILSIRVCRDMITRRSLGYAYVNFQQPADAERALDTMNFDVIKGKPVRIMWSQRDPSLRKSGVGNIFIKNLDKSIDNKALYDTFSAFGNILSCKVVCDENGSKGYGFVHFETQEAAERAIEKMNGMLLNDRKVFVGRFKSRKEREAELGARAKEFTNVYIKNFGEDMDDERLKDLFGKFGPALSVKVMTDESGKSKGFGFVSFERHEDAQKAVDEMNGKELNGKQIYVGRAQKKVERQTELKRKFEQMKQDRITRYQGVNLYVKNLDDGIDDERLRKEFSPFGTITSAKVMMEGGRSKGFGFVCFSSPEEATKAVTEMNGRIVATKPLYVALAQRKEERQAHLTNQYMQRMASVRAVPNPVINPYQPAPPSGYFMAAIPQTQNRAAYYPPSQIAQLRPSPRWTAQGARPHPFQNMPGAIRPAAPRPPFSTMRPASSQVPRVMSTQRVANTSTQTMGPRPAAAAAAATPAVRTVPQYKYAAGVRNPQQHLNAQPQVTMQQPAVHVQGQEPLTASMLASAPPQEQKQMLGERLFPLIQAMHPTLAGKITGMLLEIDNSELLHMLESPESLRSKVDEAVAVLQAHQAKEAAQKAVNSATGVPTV

SMILES: Fc1ccc(N2Cc3ccsc3C=N2)cc1
- EC50 [1]: 37.1 µM (active)
- EC50 [2]: 23.9 µM (active)
- EC50 (H4): > 120 µM (not active)

SMILES: Cc1ccc2nc(N3C(=O)C(O)=C(C(=O)c4ccc(C)o4)C3c3cccc(O)c3)sc2c1 (stereo not drawn)
- IC50 [3]: 7.83 µM (active)
- EC50 [4]: > 53 µM (inactive)

SMILES: C#CCNC(=O)C1=C[C@H](c2ccc3c(c2)OCO3)[C@@H](CCCO)[C@H](OCC)O1
- IC50 [3]: > 47.1 µM (inactive)
- EC50 [4]: > 53 µM (inactive)

SMILES: CC1(C)CC2=NC(SCC(N)=O)=C(C#N)C3(CCCCC3)C2=C(O)C1
- IC50 [5]: > 66 µM (inactive)
- IC50 [6]: > 66 µM (inactive)

SMILES: c1coc(CSc2ncnc3c2oc2ccccc23)c1
- EC50 [1]: 3.52 µM (active)
- EC50 [2]: 4.94 µM (active)
- EC50 (H4): 6.38 µM (active)

SMILES: Cn1c(SCC(=O)c2ccc3c(c2)OCCO3)nnc1C(F)(F)F
- IC50 [3]: > 47.1 µM (inactive)
- EC50 [4]: > 53 µM (inactive)

SMILES: O=c1ccc2cc(S(=O)(=O)NCc3ccccc3)ccc2[nH]1
- IC50 [3]: > 47.1 µM (inactive)
- EC50 [4]: > 53 µM (inactive)

SMILES: c1ccc(-c2noc(C34CC5CC(CC(C5)C3)C4)n2)nc1
- EC50 [1]: 0.122 µM (active)
- EC50 [2]: 30.3 µM (active)
- EC50 (H4): 48 µM (active)

SMILES: CC(=O)c1ccc(N2CCN(C(=O)CCS(=O)(=O)c3ccc4c(c3)CCN4C(C)=O)CC2)cc1
- IC50 [3]: > 47.1 µM (inactive)
- EC50 [4]: > 53 µM (inactive)

SMILES: COc1ccccc1C(=O)NC(CCSC)C(=O)NC1CCCCCC1 (stereo not drawn)
- IC50 [3]: > 47.1 µM (inactive)
- EC50 [4]: > 53 µM (inactive)

SMILES: CCC(=O)Nc1ccc(-c2ccc(N3CCN(C)CC3)nn2)cc1
- EC50 [1]: > 120 µM (not active)
- EC50 [2]: 15.5 µM (active)
- EC50 (H4): 19.2 µM (active)

SMILES: Cc1cccc(C)c1N=C(S)Nc1ccc(Cl)c(Cl)c1
- IC50 [5]: > 66 µM (inactive)
- IC50 [6]: > 66 µM (inactive)

SMILES: O=C(/C=C/c1ccco1)N1CCN(c2ncccn2)CC1
- IC50 [5]: > 66 µM (inactive)
- IC50 [6]: > 66 µM (inactive)

SMILES: O=C1NC2=C(C(=O)CCC2)C(c2ccccc2[N+](=O)[O-])N1 (stereo not drawn)
- IC50 [5]: > 66 µM (inactive)
- IC50 [6]: > 66 µM (inactive)

SMILES: CCCC1c2ccc(C)n2CCN1C(=O)Nc1ccccc1Cl (stereo not drawn)
- EC50 [1]: 23 µM (active)
- EC50 [2]: 14.2 µM (active)
- EC50 (H4): > 120 µM (not active)

SMILES: CCCCCCCOC(=O)c1ccc(OC(=O)c2cccnc2)cc1
- EC50 (Protein RecA): > 380 µM (inconclusive)

SMILES: O=c1c(-c2ccc3c(c2)OCCO3)coc2c(CN3CCOCC3)c(O)ccc12
- EC50 [1]: 42.3 µM (active)
- EC50 [2]: 17.7 µM (active)
- EC50 (H4): > 120 µM (not active)

SMILES: Cc1cc2c(NS(=O)(=O)c3ccc(F)cc3)cccc2nn1
- IC50 [3]: > 47.1 µM (inactive)
- EC50 [4]: > 53 µM (inactive)

SMILES: COc1ccc(S(=O)(=O)N(C)C[C@H]2Oc3ccc(NC(=O)Nc4ccc(C(F)(F)F)cc4)cc3C(=O)N([C@H](C)CO)C[C@@H]2C)cc1
- AC50 (Paired box protein Pax-8): 8.69 µM (active)

SMILES: O=C(Nc1ccccc1)c1nc[nH]c1C(=O)NCCN(CCNC(=O)c1[nH]cnc1C(=O)Nc1ccccc1)CCNC(=O)c1[nH]cnc1C(=O)Nc1ccccc1
- IC50 [3]: > 47.1 µM (inactive)
- EC50 [4]: > 53 µM (inactive)

SMILES: CCOc1ccc(C(=O)NNC(=O)CCNC(=O)c2ccco2)cc1OC
- IC50 [3]: > 47.1 µM (inactive)
- EC50 [4]: > 53 µM (inactive)

SMILES: C[C@H](CO)N1C[C@H](C)[C@H](CN(C)S(=O)(=O)c2ccc(Cl)cc2)OCCCC[C@H](C)Oc2ccc(NS(=O)(=O)c3ccc(F)cc3)cc2C1=O
- AC50 (Paired box protein Pax-8): 9.43 µM (active)

SMILES: C[C@@H]1CCCCO[C@@H](CN(C)Cc2ccc(Cl)c(Cl)c2)[C@H](C)CN([C@H](C)CO)C(=O)c2cc(NC(=O)Nc3ccccc3)ccc2O1
- AC50 (Paired box protein Pax-8): 12.5 µM (active)
